Measurements: the NIST ThermoML archive (doi:10.1016/j.jct.2019.06.032)
Numbers after ± are expanded uncertainties.

Experiment: xn = mol fraction of the nth substance listed
Settings: 101 kPa, Liquid; for viscosity: Capillary tube (Ostwald / Ubbelohde) method; for mass density: Vibrating tube method

CCN(CC)CCO [(diethylamino)ethanol] + O
Settings | mass density, 293.15 K [kg/m3] | mass density, 303.15 K [kg/m3] | mass density, 313.15 K [kg/m3] | mass density, 323.15 K [kg/m3] | mass density, 333.15 K [kg/m3] | viscosity, 293.15 K [mPa·s] | viscosity, 303.15 K [mPa·s] | viscosity, 313.15 K [mPa·s] | viscosity, 323.15 K [mPa·s] | viscosity, 333.15 K [mPa·s]
x1 = 0.1001 | 982 ± 10 | 974.2 ± 10 | 966.6 ± 10 | 958.5 ± 10 | 950.1 ± 10 | 7.938 ± 1.6 | 5.548 ± 1.1 | 3.741 ± 0.76 | 2.623 ± 0.53 | 1.94 ± 0.39
x1 = 0.2005 | 962.4 ± 10 | 953 ± 10 | 944.3 ± 10 | 935 ± 10 | 925.6 ± 10 | 17.02 ± 3.4 | 10.01 ± 2 | 6.284 ± 1.3 | 4.233 ± 0.85 | 2.937 ± 0.59
x1 = 0.2997 | 946.6 ± 10 | 936.8 ± 10 | 926.9 ± 10 | 917.5 ± 10 | 907.6 ± 10 | 20.5 ± 4.1 | 11.01 ± 2.2 | 7.194 ± 1.4 | 4.584 ± 0.92 | 3.15 ± 0.63
x1 = 0.3978 | 933.4 ± 10 | 923.2 ± 10 | 913.9 ± 10 | 903.7 ± 10 | 893.9 ± 10 | 20.32 ± 4.1 | 9.991 ± 2 | 6.145 ± 1.2 | 4.058 ± 0.81 | 2.963 ± 0.59
x1 = 0.4997 | 922.2 ± 10 | 912 ± 10 | 901.8 ± 10 | 892 ± 10 | 882.4 ± 10 | 17.73 ± 3.5 | 9.074 ± 1.8 | 5.477 ± 1.1 | 3.605 ± 0.72 | 2.593 ± 0.52
x1 = 0.5992 | 914.4 ± 10 | 903.2 ± 10 | 892.8 ± 10 | 882.3 ± 10 | 872.5 ± 10 | 14.8 ± 3 | 8.421 ± 1.7 | 5.078 ± 1 | 3.05 ± 0.61 | 2.4 ± 0.48
x1 = 0.6897 | 906.3 ± 10 | 894.8 ± 10 | 884.2 ± 10 | 873.9 ± 10 | 864.7 ± 10 | 12.42 ± 2.5 | 7.125 ± 1.4 | 4.663 ± 0.93 | 2.692 ± 0.54 | 2.102 ± 0.42
x1 = 0.7997 | 899.6 ± 10 | 887.4 ± 10 | 876.9 ± 10 | 867.4 ± 10 | 857.3 ± 10 | 9.723 ± 1.9 | 6.002 ± 1.2 | 3.878 ± 0.78 | – | 1.794 ± 0.36
x1 = 0.8997 | 895.5 ± 10 | 880.8 ± 10 | 870.7 ± 10 | 861.4 ± 10 | 851.9 ± 10 | 7.341 ± 1.5 | 4.868 ± 0.98 | 3.402 ± 0.68 | 2.141 ± 0.43 | 1.619 ± 0.32
x1 = 1 | 891.2 ± 10 | 874.4 ± 10 | 865.4 ± 10 | 856.4 ± 10 | 845.6 ± 10 | 4.848 ± 0.97 | 3.41 ± 0.68 | 2.466 ± 0.49 | 1.855 ± 0.37 | 1.431 ± 0.29

CCN(CC)CCO [(diethylamino)ethanol] + NCCO
Settings | mass density, 293.15 K [kg/m3] | mass density, 303.15 K [kg/m3] | mass density, 313.15 K [kg/m3] | mass density, 323.15 K [kg/m3] | mass density, 333.15 K [kg/m3] | viscosity, 293.15 K [mPa·s] | viscosity, 303.15 K [mPa·s] | viscosity, 313.15 K [mPa·s] | viscosity, 323.15 K [mPa·s] | viscosity, 333.15 K [mPa·s]
x2 = 0 | 891.2 ± 10 | 874.4 ± 10 | 865.4 ± 10 | 856.4 ± 10 | 845.6 ± 10 | 4.848 ± 0.97 | 3.41 ± 0.68 | 2.466 ± 0.49 | 1.855 ± 0.37 | 1.431 ± 0.29
x2 = 0.1003 | 897.2 ± 10 | 881.4 ± 10 | 869.8 ± 10 | 859.4 ± 10 | 849.2 ± 10 | 6.52 ± 1.3 | 3.543 ± 0.71 | 2.619 ± 0.52 | 1.952 ± 0.39 | 1.568 ± 0.31
x2 = 0.2004 | 906.9 ± 10 | 892.2 ± 10 | 881.6 ± 10 | 871.1 ± 10 | 861 ± 10 | 8.275 ± 1.7 | 3.892 ± 0.78 | 2.982 ± 0.6 | 2.149 ± 0.43 | 1.746 ± 0.35
x2 = 0.2993 | 920.7 ± 10 | 906.2 ± 10 | 897.8 ± 10 | 887.6 ± 10 | 879.7 ± 10 | 10.42 ± 2.1 | 4.495 ± 0.9 | 3.501 ± 0.7 | 2.658 ± 0.53 | 2.107 ± 0.42
x2 = 0.4003 | 931.6 ± 10 | 918 ± 10 | 910.5 ± 10 | 901.2 ± 10 | 891.8 ± 10 | 12.32 ± 2.5 | 5.526 ± 1.1 | 4.04 ± 0.81 | 2.925 ± 0.59 | 2.426 ± 0.49
x2 = 0.5001 | 941 ± 10 | 929.9 ± 10 | 920.1 ± 10 | 910.2 ± 10 | 902.3 ± 10 | 13.76 ± 2.8 | 6.483 ± 1.3 | 4.629 ± 0.93 | 3.314 ± 0.66 | 2.767 ± 0.55
x2 = 0.6001 | 952.2 ± 10 | 942.1 ± 10 | 935 ± 10 | 926.9 ± 10 | 915.8 ± 10 | 15.98 ± 3.2 | 7.382 ± 1.5 | 5.072 ± 1 | 3.651 ± 0.73 | 3.007 ± 0.6
x2 = 0.7007 | 965.8 ± 10 | 954.2 ± 10 | 944.6 ± 10 | 935.9 ± 10 | 927.9 ± 10 | 17.27 ± 3.5 | 8.567 ± 1.7 | 5.754 ± 1.2 | 4.046 ± 0.81 | 3.273 ± 0.66
x2 = 0.8001 | 981.8 ± 10 | 971.6 ± 10 | 963 ± 10 | 954.3 ± 10 | 946.2 ± 10 | 19.77 ± 4 | 10.57 ± 2.1 | 7.21 ± 1.4 | 4.954 ± 0.99 | 3.651 ± 0.73
x2 = 0.9 | 999.8 ± 10 | 991.5 ± 10 | 982.7 ± 10 | 974.3 ± 10 | 965.5 ± 10 | 22.75 ± 4.6 | 13.44 ± 2.7 | 8.826 ± 1.8 | 6.018 ± 1.2 | 4.413 ± 0.88

NCCO [2-aminoethan-1-ol] + O
Settings | mass density, 293.15 K [kg/m3] | mass density, 303.15 K [kg/m3] | mass density, 313.15 K [kg/m3] | mass density, 323.15 K [kg/m3] | mass density, 333.15 K [kg/m3] | viscosity, 293.15 K [mPa·s] | viscosity, 303.15 K [mPa·s] | viscosity, 313.15 K [mPa·s] | viscosity, 323.15 K [mPa·s] | viscosity, 333.15 K [mPa·s]
x1 = 0.1 | 1010.9 ± 10 | 1007 ± 10 | 1002.5 ± 10 | 997.4 ± 10 | 991.7 ± 10 | 2.669 ± 0.54 | 1.953 ± 0.4 | 1.495 ± 0.3 | 1.147 ± 0.23 | 0.903 ± 0.18
x1 = 0.1999 | 1021.1 ± 10 | 1016 ± 10 | 1010.6 ± 10 | 1004.4 ± 10 | 998 ± 10 | 5.763 ± 1.2 | 3.976 ± 0.8 | 2.388 ± 0.48 | 1.819 ± 0.37 | 1.429 ± 0.29
x1 = 0.2998 | 1027.1 ± 10 | 1021 ± 10 | 1014.3 ± 10 | 1007.5 ± 10 | 1000.5 ± 10 | 10.28 ± 2.1 | 6.221 ± 1.2 | 4.011 ± 0.81 | 3 ± 0.6 | 2.268 ± 0.46
x1 = 0.4 | 1029.4 ± 10 | 1022.6 ± 10 | 1015.5 ± 10 | 1008.3 ± 10 | 1000.8 ± 10 | 15.22 ± 3.1 | 9.814 ± 2 | 6.589 ± 1.3 | 4.621 ± 0.93 | 3.387 ± 0.68
x1 = 0.4998 | 1029.3 ± 10 | 1022 ± 10 | 1014.6 ± 10 | 1007 ± 10 | 999.4 ± 10 | 19.75 ± 4 | 12.4 ± 2.5 | 8.077 ± 1.6 | 5.671 ± 1.1 | 4.071 ± 0.81
x1 = 0.5995 | 1028.1 ± 10 | 1020.3 ± 10 | 1012.7 ± 10 | 1004.9 ± 10 | 997 ± 10 | 22.83 ± 4.6 | 14.17 ± 2.8 | 9.474 ± 1.9 | 6.412 ± 1.3 | 4.784 ± 0.96
x1 = 0.6982 | 1026.3 ± 10 | 1018 ± 10 | 1010.4 ± 10 | 1002.8 ± 10 | 994.9 ± 10 | 24.37 ± 4.9 | 15.25 ± 3.1 | 10.05 ± 2 | 7.035 ± 1.4 | 4.978 ± 1
x1 = 0.7974 | 1023.8 ± 10 | 1015.1 ± 10 | 1007.1 ± 10 | 999.4 ± 10 | 991.5 ± 10 | 25.19 ± 5 | 15.62 ± 3.1 | 10.09 ± 2 | 7.169 ± 1.4 | 5.014 ± 1
x1 = 0.8995 | 1021.2 ± 10 | 1013 ± 10 | 1005.1 ± 10 | 997.2 ± 10 | 988.1 ± 10 | 24.62 ± 4.9 | 15.17 ± 3 | 10.08 ± 2 | 7.12 ± 1.4 | 5.001 ± 1
x1 = 1 | 1016.9 ± 10 | 1009.5 ± 10 | 1001.1 ± 10 | 992.7 ± 10 | 984.3 ± 10 | 23.79 ± 4.8 | 14.83 ± 3 | 9.89 ± 2 | 6.872 ± 1.4 | 4.99 ± 1
